# Laboratory results reported in the CATMoS acute toxicity set (Mansouri et al. 2021).
# “And” between values parts separate entries of the source, which are not always exact repeats. Identical values can stand only once.
# Assay: rat acute oral toxicity
# Conditions: in vivo
row,Compound,LD50
1,CCSC(=O)N(CC)C1CCCCC1,1680 mg/kg
2,CC(C)(C)C(=O)O,900 mg/kg
3,COCCOCCOC,4760 mg/kg
4,CC1(C)C(=O)N(Br)C(=O)N1Cl,485 mg/kg
5,C=CCn1c(=O)n(CC=C)c(=O)n(CC=C)c1=O,707 mg/kg
6,O=C1C[C@@H]2OCC=C3CN4CC[C@]56c7ccccc7N1[C@H]5[C@H]2[C@H]3C[C@H]46,3.58 mg/kg
7,S=c1[nH]c(=S)[nH]c(=S)[nH]1,1180 mg/kg
8,CC(C)(C)c1ccc(CSc2cnn(C(C)(C)C)c(=O)c2Cl)cc1,570 mg/kg
9,O=C(OCCOCCOC(=O)c1ccccc1)c1ccccc1,2830 mg/kg
10,CCC[Si](OC)(OC)OC,5170 mg/kg
11,CC(C)c1cccc(C(C)C)c1N=C=Nc1c(C(C)C)cccc1C(C)C,200 mg/kg
12,CCCCCCC(=O)O,7000 mg/kg
13,Nc1ccccc1N,510 mg/kg
14,NC(=O)NCc1ccccc1,2700 mg/kg
15,Clc1cccc(Cl)c1C(Cl)Cl,1300 mg/kg
16,CCCCCCCCCCCCN(C)C,740 mg/kg
17,Cn1cnc([N+](=O)[O-])c1Sc1ncnc2nc[nH]c12,400 mg/kg
18,CCN(CC)C(=S)S,1500 mg/kg
19,O=C(O)c1ccc2c(c1)C(=O)OC2=O,2030 mg/kg
20,CCCC(=NOCC)C1=C(O)CC(CC(C)SCC)CC1=O (stereo unspecified),2680 mg/kg
21,COc1nc(NC(C)C)nc(NC(C)C)n1,503 mg/kg
22,Cc1ccccc1OCC1CO1 (stereo unspecified),2800 mg/kg
23,ClCC(Cl)CCl,136 mg/kg
24,N#CO,567 mg/kg and 582 mg/kg
25,C[Si](C)(C)N[Si](C)(C)C,847 mg/kg
26,C=Cc1ccccc1,1000 mg/kg

row,Compound,LD50
1,CCOP(=S)(OCC)SCSC(C)(C)C,1.6 mg/kg
2,COC(=O)CC(=O)CC(=O)OC,4480 mg/kg
3,CCCC=O,2490 mg/kg
4,Nc1ccc(Sc2ccc(N)cc2)cc1,900 mg/kg
5,CC(C)CCCCCCO,2980 mg/kg
6,COCCCNc1nc(NCCCOC)nc(SC)n1,1400 mg/kg
7,C=CCCl,284 mg/kg
8,ClC1=C(Cl)C2(Cl)C3C(Cl)C=CC3C1(Cl)C2(Cl)Cl (stereo unspecified),40 mg/kg
9,NCCCCCCN,750 mg/kg
10,COP(=S)(OC)Oc1ccc([N+](=O)[O-])cc1Cl,284 mg/kg
11,COc1cc(OC)nc(Oc2cccc(Oc3nc(OC)cc(OC)n3)c2C(=O)O)n1,2640 mg/kg
12,CN(C)C(C)(C)CO,1660 mg/kg
13,CCc1ccccc1,3500 mg/kg
14,Cc1ccccc1S(N)(=O)=O,2400 mg/kg
15,CN1CCCC1=O,3910 mg/kg
16,CSCCC=O,490 mg/kg
17,CC(C)C(=O)O,266 mg/kg
18,CC(C)C(C(=O)OC(C#N)c1cccc(Oc2ccccc2)c1)c1ccc(Cl)cc1 (stereo unspecified),135 mg/kg
19,CS(C)=O,14500 mg/kg
20,Nc1c(Cl)c(F)nc(OCC(=O)O)c1Cl,2400 mg/kg
21,CC1(C)C(C=C(Cl)Cl)C1C(=O)OC(C#N)c1ccc(F)c(Oc2ccccc2)c1 (stereo unspecified),270 mg/kg
22,O=C(O)CCS,63 mg/kg
23,c1ccc2[nH]c(-c3cscn3)nc2c1,2080 mg/kg
24,O=c1nc(O)n(Cl)c(=O)n1Cl,1670 mg/kg
25,COc1c(Cl)ccc(Cl)c1C(=O)O,757 mg/kg
26,CCCCOCCOCCOCc1cc2c(cc1CCC)OCO2,4570 mg/kg

row,Compound,LD50
1,ClC(Cl)(Cl)Cl,2350 mg/kg
2,Oc1ccc(Cl)cc1,500 mg/kg
3,OCC#CCO,104 mg/kg
4,CC(CCl)OP(=O)(OC(C)CCl)OC(C)CCl (stereo unspecified),980 mg/kg
5,CC(C)(C)CCCCCCCCCN,300 mg/kg
6,O=C(O)C=CC(=O)O,708 mg/kg
7,ClC(Cl)(Cl)c1ccccc1,1590 mg/kg
8,CC(O)C#N (stereo unspecified),21 mg/kg
9,Nc1ccc(Cl)cc1,300 mg/kg
10,CSc1nc(NC(C)C)nc(NC(C)C)n1,1940 mg/kg
11,C1CO1,72 mg/kg
12,COP(=S)(OC)Oc1ccc([N+](=O)[O-])cc1,6.01 mg/kg
13,CC(C)(N)Cc1ccccc1,151 mg/kg
14,C=C(C)C(=O)O,1060 mg/kg
15,COc1ccc(C(CN)C2(O)CCCCC2)cc1 (stereo unspecified),200 mg/kg
16,Cc1ccc(O)cc1,207 mg/kg
17,O=c1n(Cl)c(=O)n(Cl)c(=O)n1Cl,406 mg/kg
18,ClC(Cl)C(Cl)Cl,200 mg/kg
19,CC1(C)C(C=C(Cl)Cl)C1C(=O)OCc1cccc(Oc2ccccc2)c1 (stereo unspecified),406 mg/kg
20,CCNc1nc(NC(C)C)nc(SC)n1,1060 mg/kg
21,CSc1ccc(C(=O)C(C)(C)N2CCOCC2)cc1,1460 mg/kg
22,O=C(NC(=O)c1c(F)cccc1F)Nc1ccc(Cl)cc1,790 mg/kg
23,CCCCCC,25000 mg/kg
24,O=C(O)c1ccc2cc(O)ccc2c1,947 mg/kg
25,Cc1ccc(S(C)(=O)=O)cc1[N+](=O)[O-],933 mg/kg
26,COc1cc(CNC(=O)CCCC/C=C/C(C)C)ccc1O,148 mg/kg

row,Compound,LD50
1,O=C1NC(=O)C(c2ccccc2)(c2ccccc2)N1,250 mg/kg
2,O=C(O)COc1ccc(Cl)cc1Cl,625 mg/kg and 552 mg/kg and 370 mg/kg
3,CCCCOC(=O)COc1ccc(Cl)cc1Cl,600 mg/kg
4,C1CN(SSN2CCOCC2)CCO1,4300 mg/kg
5,O=Cc1ccccc1,1300 mg/kg
6,c1ccc(Nc2ccccc2)cc1,1120 mg/kg
7,CC(C)(C)c1ccc(C(O)CCCN2CCC(C(O)(c3ccccc3)c3ccccc3)CC2)cc1 (stereo unspecified),438 mg/kg
8,O=CC=Cc1ccccc1,2200 mg/kg
9,CC(=O)Oc1ccccc1C(=O)O,1280 mg/kg
10,N#C/N=C1\SCCN1Cc1ccc(Cl)nc1,285 mg/kg
11,CC(=O)CC(=O)Nc1ccccc1Cl,4040 mg/kg
12,CC(O)CN(CCCN(C)C)CCCN(C)C (stereo unspecified),1330 mg/kg
13,Cc1ccc([N+](=O)[O-])c(C)c1,1690 mg/kg
14,CCCCCCCCCCCCCCCCCCN,1000 mg/kg
15,Oc1ccccc1O,260 mg/kg
16,CCOP(=S)(OCC)Oc1ccc([N+](=O)[O-])cc1,2.1 mg/kg
17,CCOC(=O)CC(SP(=S)(OC)OC)C(=O)OCC (stereo unspecified),1190 mg/kg
18,CC1(C)[C@H](/C=C2\CCSC2=O)[C@@H]1C(=O)OCc1coc(Cc2ccccc2)c1,650 mg/kg
19,Oc1c(Cl)cc(Cl)c(Cl)c1Cc1c(O)c(Cl)cc(Cl)c1Cl,56 mg/kg
20,O=P1(N(CCCl)CCCl)NCCCO1 (stereo unspecified),100 mg/kg
21,C=CC(C)(CCC=C(C)C)OC(C)=O (stereo unspecified),13900 mg/kg
22,Cc1ccccc1O,121 mg/kg
23,CC1=C(C(=O)Nc2ccccc2)S(=O)(=O)CCO1,1630 mg/kg
24,CCCCC(C=O)CC (stereo unspecified),2600 mg/kg
25,O=[N+]([O-])c1ccc(O)cc1,170 mg/kg
26,CS,116 mg/kg

row,Compound,LD50
1,CCCCCc1cc(O)c2c(c1)OC(C)(C)[C@@H]1CCC(C)=C[C@@H]21,666 mg/kg
2,S=C=S,1200 mg/kg
3,NNC(N)=S,9.16 mg/kg
4,CCCC(C)c1cccc(OC(=O)NC)c1 (stereo unspecified),50 mg/kg
5,C=C[Si](ON=C(C)CC)(ON=C(C)CC)ON=C(C)CC,3520 mg/kg
6,CCC(C)=NO[Si](ON=C(C)CC)(ON=C(C)CC)ON=C(C)CC,2450 mg/kg
7,CCC1CO1 (stereo unspecified),500 mg/kg
8,O=c1n(CC2CO2)c(=O)n(CC2CO2)c(=O)n1CC1CO1 (stereo unspecified),222 mg/kg
9,O=S(=O)(C(Cl)(Cl)Cl)C(Cl)(Cl)Cl,535 mg/kg
10,COC(C)(C)CCCC(C)C/C=C/C(C)=C/C(=O)OC(C)C (stereo unspecified),2320 mg/kg
11,O=[N+]([O-])c1ccc(Cl)cc1O,1000 mg/kg
12,O=C(Nc1ccccc1)Nc1ccnc(Cl)c1,4900 mg/kg
13,CNC(=O)N(C)c1nnc(C(C)(C)C)s1,640 mg/kg
14,O=C=Nc1ccc(OC(F)(F)F)cc1,1520 mg/kg
15,C/C(=N\NC(=O)Nc1cc(F)cc(F)c1)c1ncccc1C(=O)O,3300 mg/kg
16,CN(C)C(=O)Nc1cccc(C(F)(F)F)c1,1450 mg/kg
17,Cn1sccc1=O,105 mg/kg
18,CCCOC(C)=O,9370 mg/kg
19,COCCOC(C)=O,1250 mg/kg
20,CCc1nn(C)c(C(=O)NCc2ccc(C(C)(C)C)cc2)c1Cl,595 mg/kg
21,Cc1cccc([N+](=O)[O-])c1C,2110 mg/kg
22,CCCCCCCC(=O)OC,10100 mg/kg
23,CC1(C)CC(O)CC(C)(C)N1[O],953 mg/kg
24,CCN(C)C,594 mg/kg
25,c1ccc2ccccc2c1,2200 mg/kg
26,CCC(C)(C)OC,1600 mg/kg

row,Compound,LD50
1,O=[N+]([O-])c1cccc(Cl)c1Cl,381 mg/kg
2,CC1=CC(=O)NS(=O)(=O)O1,5440 mg/kg
3,CCCC(O)C(CC)CO (stereo unspecified),1400 mg/kg
4,COCC(C)O (stereo unspecified),3740 mg/kg
5,CN(C)CCC=C1c2ccccc2CCc2ccccc21,280 mg/kg
6,CC1CCC(CO)CC1 (stereo unspecified),707 mg/kg
7,ClC(Cl)(Cl)C(Cl)(Cl)Cl,4460 mg/kg
8,CN1CCC[C@H]1c1cccnc1,51.2 mg/kg
9,COC(=O)CS,84 mg/kg
10,C#CCOC(=O)[C@@H](C)Oc1ccc(Oc2ncc(Cl)cc2F)cc1,2230 mg/kg
11,c1ccc2ncccc2c1,331 mg/kg
12,CNP(=O)(OC)Oc1ccc(C(C)(C)C)cc1Cl (stereo unspecified),460 mg/kg
13,c1ccncc1,891 mg/kg
14,CCCCCOC(C)=O,6500 mg/kg
15,CCOCn1c(-c2ccc(Cl)cc2)c(C#N)c(Br)c1C(F)(F)F,560 mg/kg
16,CNC(=O)Oc1cccc2c1OC(C)(C)C2,5.15 mg/kg
17,CCCCC(CC)C(=O)O (stereo unspecified),2040 mg/kg
18,CCCCCC(C)OC(=O)COc1ccc(Cl)c2cccnc12 (stereo unspecified),1100 mg/kg
19,CCCCC(C#N)(Cn1cncn1)c1ccc(Cl)cc1 (stereo unspecified),1600 mg/kg
20,CN(C)C(=O)C(c1ccccc1)c1ccccc1,685 mg/kg
21,CCCC(C)(COC(N)=O)COC(N)=O,794 mg/kg
22,O=Cc1ccncc1,2170 mg/kg
23,COP(=O)(NC(C)=O)SC (stereo unspecified),700 mg/kg
24,CCN(CC)C(=O)SCc1ccc(Cl)cc1,920 mg/kg
25,CCCCN(CCCC)C(=O)N(CCCC)CCCC,16700 mg/kg
26,Clc1ccc(C(Cl)Cl)cc1,1910 mg/kg

row,Compound,LD50
1,O=C=NC1CCC(CC2CCC(N=C=O)CC2)CC1 (stereo unspecified),1060 mg/kg
2,C=CC(=O)NC(C)(C)CC(C)=O,1000 mg/kg
3,CN(C)c1ccccc1,951 mg/kg
4,CCO[Si](CCCN)(OCC)OCC,1570 mg/kg
5,COP(=S)(OC)Oc1nc(Cl)c(Cl)cc1Cl,1500 mg/kg
6,COC(=O)c1ccccc1O,887 mg/kg
7,CC(O)COC(C)CO (stereo unspecified),2280 mg/kg
8,CNC(=O)ON=CC(C)(C)SC,0.5 mg/kg
9,CCOP(=S)(OCC)SCCSCC,1.9 mg/kg
10,O=C(O)c1ccccc1,1700 mg/kg
11,O=C1C=CC(=O)N1c1ccccc1,128 mg/kg
12,CCCSC(=O)N(CCC)CCC,1200 mg/kg
13,C[N+](C)(C)CCO,3400 mg/kg
14,CC(C)NC(C)C,310 mg/kg
15,N#CC(Cl)Cl,330 mg/kg
16,CCCCCCCC[Si](OCC)(OCC)OCC,11500 mg/kg
17,C1=CCCC=CCCC=CCC1,1780 mg/kg
18,CC[Si](Cl)(Cl)CC,600 mg/kg
19,CCCCOC(=O)CCCCCCCCC(=O)OCCCC,14900 mg/kg
20,COC(=O)OC(=O)OC,260 mg/kg
